The target of one series is FGFR-4 kinase (Homo sapiens, UniProt P22455). In words: FGFR-4 kinase activity, homogeneous time-resolved fluorescence (HTRF) method. The class given is biochemical. Conditions: Table 1; ATP 25 μM, FGFR-4 kinase 1 nM; read-out: FGFR4 IC50. How it is done: 1. In vitro determination of the protein activity of compounds: The FGFR-4 kinase activity detection platform was established by the homogeneous time-resolved fluorescence (HTRF) method, and the activity of the compound was determined. 1000 μM compounds were subjected to 3-fold gradient dilution in 100% DMSO 11 times (12 concentrations in total), 4 μL diluent from each concentration was added to 96 μL of reaction buffer (50 mM HEPES, pH 7.4, 5 mM MnCl2, 0.1 mM NaVO3, 0.001% Tween-20, 0.01% BAS, 1 mM DTT) and mixed well, as a 4* compound (final concentration of 0.017 nM-1000 nM) for later use. 2 * FGFR-4 kinase (final concentration of 1 nM) was formulated using reaction buffer and 4*substrate (ATP+TK peptide) (TK peptide, HTRF® KinEASETM-TK, purchased from Cisbio, TK peptide, final concentration of 1 μM, ATP final concentration of 25 μ M) was formulated using reaction buffer. 2.5 μL of 4*compound and then 5 μL of 2 * FGFR-4 kinase were added to a 384-well plate (OptiPlate-384, purchased from PerkinElmer), the mixture was mixed by centrifugation, and 2.5 μL of 4 * substrate mixture was added to start the reaction (total reaction volume of 10 µL). The 384-well plate was placed in an incubator 23° C. and stirred for 60 min before the reaction was stopped by the addition of 5 μL of Eu^3+cryptate-labeled anti-phosphotyrosine antibody (TRF® KinEASE™-TK, purchased from Cisbio) and 5 μL of Streptavidin-XL-665 (HTRF® KinEASE™-TK, purchased from Cisbio). After incubation in the incubator for 1 h, fluorescence values (excitation at 320 nm, detecting emitted light at 665 nm and 620 nm, and a ratio of the two as enzyme activity) were read on Envision (purchased from PerkinElmer). The enzyme activity of each compound was measured at 12 concentrations, and the ICso value of the compound was calculated using GraphPad Prism 5.0 software.
The FGFR-4 kinase activity detection platform was established by homogeneous time-resolved fluorescence (HTRF) method, and the activity of compound was determined. 1000 μM compounds were subjected to 3-fold gradient dilution in 100% DMSO 11 times (12 concentrations in total), 4 μL of diluent from each concentration was added to 96 μL of reaction buffer (50 mM HEPES, pH 7.4, 5 mM MnCl2, 0.1 mM NaVO3, 0.001% Tween-20, 0.01% BAS, 1 mM DTT) and mixed well, as a 4* compound (final concentration of 0.017 nM-1000 nM) for later use. 2 * FGFR-4 kinase (final concentration of 1 nM) was formulated using reaction buffer and 4*substrate (ATP+TK peptide)(TK peptide, HTRF® KinEASE™-TK, purchased from Cisbio, TK peptide, final concentration of 1 μM, ATP final concentration of 25 μM) was formulated using reaction buffer. 2.5 μL of 4 * compound and then 5 μL of 2 * FGFR-4 kinase were added to a 384-well plate (OptiPlate-384, purchased from PerkinElmer), the mixture was mixed by centrifugation, and 2.5 μL of 4 * substrate mixture was added to start the reaction (total reaction volume of 10 μL). The 384-well plate was placed in an incubator 23° C. and stirred for 60 min before the reaction was stopped by the addition of 5 μL of Eu^3+cryptate-labled anti-phosphotyrosine antibody (TRF® KinEASE™-TK, purchased from Cisbio) and 5 μL of Streptavidin-XL-665 (HTRF® KinEASE™-TK, purchased from Cisbio). After incubation in the incubator for 1 h, fluorescence values (excitation at 320 nm, detecting emitted light at 665 nm and 620 nm, and a ratio of the two as enzyme activity) were read on Envision (purchased from PerkinElmer). The enzyme activity of each compopund was measured at 12 concentrations, and the ICso value of the compound was calculated using GraphPad prism 5.0 software.
On the technique in general: TR-FRET usually uses a lanthanide donor and a delayed reading to cut background.

In series [1] the test system is Human hepatoma cells Hep3b. The series is described as follows: Cell proliferation inhibition, Cell Titer-Glo. The series is classed as cell-based. The conditions noted are these: Hep3B, 72 h, Table 1, 3 days incubation. How it is done:
2. Determination of cell proliferation activity of compounds:
Cell Titer-Glo ® detection reagent from Promega was used to establish the suspension cell proliferation inhibition screening method. Human hepatoma cells Hep3b (Xiehe Cell Research Center) were cultured in 25 cm^2 or 75 cm^2 plastic tissue culture flasks (Corning®) filled with MEM (Gibco®) medium supplemented with 10% fetal bovine serum (Hyclone®) under 37° C., 95% air and 5% CO2, and subcultured 2-3 times a week.
(§1) Hep3b cells were seeded in a 96-well cell culture plate (Corning®) at a density of 3×10^3 cells/well, […], and cultured under 37° C., 95% air, and 5% CO2. After 24 h the test compound was added: 10 mM compounds (dissolved in DMSO) were subjected to 3-fold gradient dilution in DMSO , […] of diluent from each concentration was added to […] of serum-free medium, and finally […] of compound diluted in the medium was added to the plate seeded with cells. The final concentration of DMSO in the cell culture medium was 0.1% and the final concentration of the test compound was 0.3 nM-[…]. The above cells were incubated for 3 days under 37° C.
After 3 days, the cell viability assay was performed by the Cell Titer-Glo (Promega) kit, and finally, the inhibitory concentration 50% of the compound on cell proliferation, i.e. the IC 50 value, was calculated by the GraphPad Prism 5.0 program.
as §1, with “DMSO,” for “DMSO ,”, “finally,” for “finally”, “of” for “of the”
After 3 days, the cell viability assay was performed by the Cell Titer-Glo (Promega) kit, and finally the inhibitory concentration 50% of the compound on cell proliferation, i.e. the IC 50 value, was calculated by the GraphPad Prism 5.0 program.
A general note: ATP-based viability assays read luminescence as a measure of living cells.

The nature of series [2]: Pharmacokinetics in male SD rats, single intragastric administration. The series is classed as in vivo. Conditions: rat, po, 5 mg/kg suspension, plasma, first PK table. The protocol: (§2) Male SD rats (Beijing Vital River Laboratory Animal Technology Co., Ltd.) were divided into groups of 3 rats each. The rats were subjected to 5 mg/kg suspension of the test sample by single intragastric administration, respectively. Animals were fasted overnight prior to the experiment from 10 h before dosing to 4 h after dosing. Blood was collected 0.25, 0.5, 1, 2, 4, 6, 8, and 24 h after administration. After isoflurane anesthesia using a small animal anesthesia machine, 0.3 mL of whole blood samples was collected from the fundus venous plexus, placed in a heparin anticoagulant tube, and were centrifuged at 4° C., 4000 rpm for 5 min, plasma was transferred to the centrifuge tube, and stored at −80° C. until analysis. Samples in the plasma were extracted using protein precipitation and the extracts were analyzed by LC/MS/MS.
as §2, with “taken through” for “collected from”, “-80°” for “−80°”

Where a name gives a salt, the structure may show the parent alone.

Chain of FGFR-4 kinase (P22455 22-802): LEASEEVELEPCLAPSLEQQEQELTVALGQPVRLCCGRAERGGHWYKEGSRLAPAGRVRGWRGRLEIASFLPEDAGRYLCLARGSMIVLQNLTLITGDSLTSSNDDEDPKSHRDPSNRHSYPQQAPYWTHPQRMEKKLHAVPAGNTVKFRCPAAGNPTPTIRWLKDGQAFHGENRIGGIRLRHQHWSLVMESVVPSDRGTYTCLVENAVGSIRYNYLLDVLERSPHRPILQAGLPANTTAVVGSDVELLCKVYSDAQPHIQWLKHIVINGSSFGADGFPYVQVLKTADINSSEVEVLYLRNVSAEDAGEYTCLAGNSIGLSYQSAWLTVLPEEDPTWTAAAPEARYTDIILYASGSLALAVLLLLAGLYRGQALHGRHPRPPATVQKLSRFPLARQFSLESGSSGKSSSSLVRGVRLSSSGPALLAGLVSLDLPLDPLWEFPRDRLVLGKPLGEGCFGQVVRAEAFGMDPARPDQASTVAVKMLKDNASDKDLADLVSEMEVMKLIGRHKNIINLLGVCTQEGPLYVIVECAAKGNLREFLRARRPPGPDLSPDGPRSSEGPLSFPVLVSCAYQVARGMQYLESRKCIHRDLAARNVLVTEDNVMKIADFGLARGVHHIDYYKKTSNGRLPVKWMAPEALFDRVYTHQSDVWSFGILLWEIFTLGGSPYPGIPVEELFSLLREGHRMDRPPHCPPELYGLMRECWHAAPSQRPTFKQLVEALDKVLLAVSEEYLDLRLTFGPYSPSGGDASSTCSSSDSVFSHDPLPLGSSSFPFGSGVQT

Turning to `C=CC(=O)Nc1cc(-c2cc3c(cn2)cc(-c2c(Cl)c(OC)cc(OC)c2Cl)c2nccn23)c(OC)cc1N1CC2COCC2C1` (stereo not shown) [Example 4, N-(5-(4-(2,6-dichloro-3,5-dimethoxyphenyl)imidazo[1,2-a][1,6]naphthyridin-8-yl)-4-methoxy-2-(tetrahydro-1H-furo[3,4-c]pyrrol-5(3H)-yl)phenyl)acrylamide], on FGFR-4 kinase, the IC50 stood at 2.25 nM.
Regarding `C=CC(=O)Nc1cc(-c2cc3c(cn2)cc(-c2c(Cl)c(OC)cc(OC)c2Cl)c2nccn23)c(OC)cc1N1CCOC2(CC2)C1` [Example 5, N-(5-(4-(2,6-dichloro-3,5-dimethoxyphenyl)imidazo[1,2-a][1,6]naphthyridin-8-yl)-4-methoxy-2-(4-oxa-7-azaspiro[2.5]octan-7-yl)phenyl)acrylamide], in series [1], the IC50 was determined as 20.3 nM.
As to `C=CC(=O)Nc1cc(-c2cc3c(cn2)cc(-c2c(Cl)c(OC)cc(OC)c2Cl)c2nccn23)c(OC)cc1N1CC2CCC(C1)N2C(C)=O` [Example 7, N-(2-(8-acetyl-3,8-diazabicyclo[3 .2.1]octan-3-yl)-5-(4-(2,6-dichloro-3,5-dimethoxyphenyl)imidazo[1,2-a][1,6]naphthyridin-8-yl)-4-methoxyphenyl)acrylamide], the IC50 worked out at 1.74 nM at FGFR-4 kinase and 83.6 nM in series [1].
For the molecule `C=CC(=O)Nc1cc(-c2cc3c(cn2)cc(-c2c(Cl)c(OC)cc(OC)c2Cl)c2nccn23)c(OC)cc1N1CCNC2(CC2)C1` [Example 9, N-(5-(4-(2,6-dichloro-3,5-dimethoxyphenyl)imidazo[1,2-a][1,6]naphthyridin-8-yl)-4-methoxy-2-(4,7-diazaspiro[2.5]octan-7-yl)phenyl)acrylamide trifluoroacetate], the IC50 on FGFR-4 kinase is 2.43 nM; in series [1], 74.7 nM.
For `C=CC(=O)Nc1cc(-c2cc3c(cn2)cc(-c2c(Cl)c(OC)cc(OC)c2Cl)c2nccn23)c(OC)cc1N1CCN(C(C)=O)C2(CC2)C1` [Example 11, N-(2-(4-acetyl-4,7-diazaspiro[2.5]octan-7-yl)-5-(4-(2,6-dichloro-3,5-dimethoxyphenyl)imidazo[1,2-a][1,6]naphthyridin-8-yl)-4-methoxyphenyl)acrylamide], in that order: 3.82 nM and 68.3 nM.
The corresponding values for `C=CC(=O)Nc1cc(-c2cc3c(cn2)cc(-c2c(Cl)c(OC)cc(OC)c2Cl)c2nccn23)c(OC)cc1N1CCC2(CC1)CCN(C1CC1)CC2` [Example 19, N-(2-(9-cyclopropyl-3,9-diazaspiro[5.5]undecan-3-yl)-5-(4-(2,6-dichloro-3,5-dimethoxyphenyl)imidazo[1,2-a][1,6]naphthyridin-8-yl)-4-methoxyphenyl)acrylamide] are 5.79 nM and 71.7 nM.
On to `C=CC(=O)Nc1cc(-c2cc3c(cn2)cc(-c2c(Cl)c(OC)cc(OC)c2Cl)c2nccn23)c(OC)cc1N1CCC2(COC2)C1` [Example 20, N-(5-(4-(2,6-dichloro-3,5-dimethoxyphenyl)imidazo[1,2-a][1,6]naphthyridin-8-yl)-4-methoxy-2-(2-oxa-6-azaspiro[3.4]octan-6-yl)phenyl)acrylamide], for which the IC50 at FGFR-4 kinase was 2.54 nM.
Turning to `C=CC(=O)Nc1cc(-c2cc3c(cn2)cc(-c2c(Cl)c(OC)cc(OC)c2Cl)c2nccn23)c(OC)cc1N1CCC2(CCN(C)C2)C1` (stereo not shown) [Example 22], on FGFR-4 kinase, the concentration for half-maximal inhibition (IC50) amounted to 5.61 nM.
As to `C=CC(=O)Nc1cc(-c2cc3c(cn2)cc(-c2c(Cl)c(OC)cc(OC)c2Cl)c2nccn23)c(OC)cc1N1CCN(C)C2(CC2)C1` [Example 23, N-(5-(4-(2,6-dichloro-3,5-dimethoxyphenyl)imidazo[1,2-a][1,6]naphthyridin-8-yl)-4-methoxy-2-(4-methyl-4,7-diazaspiro[2.5]octan-7-yl)phenyl)acrylamide], the IC50 at FGFR-4 kinase amounted to 3.85 nM; in series [1], 142 nM.
In the case of `CC#CC(=O)Nc1cc(-c2cc3c(cn2)cc(-c2c(Cl)c(OC)cc(OC)c2Cl)c2nccn23)c(OC)cc1N1C[C@@H]2C[C@H]1CO2` [Example 27, N-(2-((1S,4S)-2-oxa-5-azabicyclo[2.2.1]heptan-5-yl)-5-(4-(2,6-dichloro-3,5-dimethoxyphenyl)imidazo[1,2-a][1,6]naphthyridin-8-yl)-4-methoxyphenyl)but-2-ynamide], in series [2], the AUC(0-inf) amounted to 1860 ng·h/mL, the Cmax is 452 ng/mL and the Tmax was 3.33 h. Moreover, in series [2] (read-out: T1/2 (converted)), the half-life is 2.73 h.
As to `C=CC(=O)Nc1cc(-c2cc3c(cn2)cc(-c2c(Cl)c(OC)cc(OC)c2Cl)c2nccn23)c(OC)cc1N1CCO[C@@H](C)C1` [Example 38, (S)-N-(5-(4-(2,6-dichloro-3,5-dimethoxyphenyl)imidazo[1,2-a][1,6]naphthyridin-8-yl)-4-methoxy-2-(2-methylmorpholino)phenyl)acrylamide], the IC50 on FGFR-4 kinase worked out at 5.07 nM.

The term IC50 denotes the midpoint of a concentration-inhibition curve. A word on the AUC(0-inf): it is the area under the concentration-time curve extrapolated to infinity. As usually defined, the Cmax is the peak of the concentration-time curve. The Tmax is the time from dosing to the highest level.

(Values after patent publication US20220185811A1, “FGFR4 KINASE INHIBITOR AND PREPARATION METHOD THEREFOR AND USE THEREOF” (SHOUYAO HOLDINGS (BEIJING) CO., LTD., priority 2019, published 2022).)
